Experimental data taken from patent US4405642A, “Method for treatment or prophylaxis of cardiac disorders” (American Hospital Supply Corporation, priority 1980, dated 1983).
Structures can show the parent of a compound that is named as a salt.

Tests used:
[1] = target: T1, β-adrenergic receptors (guinea pig right atria) (Cavia porcellus, UniProt H0W3H1); assay: β-blocking activity in vitro, guinea pig right atria (rate response to isoproterenol); assay type: cell-based; settings: vs isoproterenol, guinea pig right atria, 60 minute incubation, 37° C.; for Kb: read-out: pA2 Atria (converted)
T1 construct: Atria were allowed to beat spontaneously under a loading tension; from tissue; host or cells: guinea pig right atria (isolated, spontaneously beating)
Method: (§1) Each tissue was suspended between a fixed glass rod and a Statham® Universal Transducer connected to a Beckman® recorder. Atria were allowed to beat spontaneously under a loading tension of approximately 0.5 gm. Instrinsic depressant or stimulant activity was determined for each compound by progressively increasing concentrations in the tissue baths at 60-minute intervals. Tissues were not washed between increments. The maximum concentration showing little or no cardiodepressant activity was chosen for blockade experiments. Changes in rate in response to isoproterenol were measured in the absence and presence of test compounds. Spiral strips of guinea pig trachea were suspended under 5 gm resting tension and incubated with phentolamine, tropolone and cocaine. Active tension was generated by addition of carbachol (3.0×10^-7 M) and decreases in tension in response to isoproterenol were quantitated. Cumulative concentration-response curves were produced with isoproterenol both before and after 60 minute incubation of test compounds with atria and trachea. The blocking potency of test compounds was estimated by computing pA2 values (-log […]) by the method of Furchgott, The Pharmacological Differentiation of Adrenergic Receptors, Ann. […] The degree of cardioselectivity was estimated from the ratio, KB trachea/KB atria (10^(pA.sbsp.2^atria-pA.sbsp.2^trachea)). A ratio greater than one indicates cardioselectivity. Test drugs were dissolved in distilled water and added to the bath (30 ml) in a volume of 10 or 100 μl.

[2] = tested on: β-adrenergic receptors (guinea pig right atria); assay: as above; assay type: cell-based; settings: ratio from pA2 atria and trachea; greater than one indicates cardioselectivity
Method: as §1

[3] = target: T2, β-adrenergic receptors (guinea pig tracheal strips) (Cavia porcellus, UniProt Q8K4Z4); assay: β-blocking activity in vitro, guinea pig tracheal strips (tension response to isoproterenol); assay type: cell-based; settings: vs isoproterenol, 60 minute incubation, 37° C., read-out: pA2 Trachea (converted)
T2 construct: from tissue; host or cells: guinea pig trachea (isolated spiral strips)
Method: as §1

[4] = tested on: heart rate response to isoproterenol; assay: Duration of beta-blockade in vivo, anesthetized dogs, 40-minute infusion; parameters: species or system dog; settings: for Recovery Times 50%: 50% recovery of heart rate after 40-minute infusion; for Recovery Times 50% / Recovery Times 80% / Recovery Times 100%: normalized to 50% inhibition, dog; for Recovery Times 80%: 80% recovery of heart rate after 40-minute infusion; for Recovery Times 100%: 100% recovery of heart rate after 40-minute infusion; for ED50: Canis lupus familiaris, iv, 40 min, read-out: Potency
Method: (§2) The duration of beta-blockade was determined in vivo using pentobarbitalanesthetized dogs instrumented for measurement of heart rate using a Beckman® cardiotachometer triggered electronically by a phasic aortic blood pressure signal. Both vagus nerves were severed in the cervical region and the animals were mechanically ventilated. Two experimental designs were used. The first employed a 40-minute infusion of test compound and the second used a 3-hour infusion of test compound. In the 40-minute model, isoproterenol was infused into a foreleg vein at the rate of 0.5 μg/kg/min to induce a beta-receptor mediated tachycardia. Various doses of test compound where then infused into a femoral vein over a period of 40 minutes. This infusion was then terminated and recovery from blockade was quantitated. […] This cumulative dose is expressed as mg/kg and is an indication of potency. The time period required for 80% recovery of heart rate for each dose of test drug was also measured to quantitate duration of action. […] Test compounds were dissolved in 0.9% NaCl and infused at a rate of 0.05 ml/kg/min or less. In the 3-hour infusion model, bolus doses of isoproterenol (0.5 μg/kg) were used to assess the degree of beta-blockade and recovery from beta-blockade after termination of the infusion. The doses were spaced at 10-minute intervals and were given before, during and following the infusion of test compounds. The infusion rate was adjusted so that at the end of the 3-hour infusion period the degree of isoproterenol inhibition averaged about 50% of control.

[5] = tested on: heart rate response to isoproterenol; assay: Duration of beta-blockade in vivo, anesthetized dogs, 3-hour infusion; settings: dog; for 80% Recovery Time: after termination of 3-hour infusion; for % I (Percent inhibition of heart rate response to isoproterenol): end of 3-hour infusion, bolus isoproterenol 0.5 μg/kg
Method: as §2

[6] = Disappearance in vitro in human whole blood; assay type: in vitro ADME; settings: 50 μg test compound, 37° C., read-out: T1/2 Human Whole Blood
Method: (§3) The rate of disappearance of a compound is expressed as the half-life (T1/2), which is the time period in which one half of the initial amount of compound tested disappears. […] The samples were incubated in a Dubnoff shaking metabolic incubator for 2.5, 5.0, 10.0, 20.0, 30.0 and 60.0 minutes at 37° C. At the designated time periods, the test mixtures were removed from the incubator and transferred to a 0° C. ice bath. Acetonitrile (2 ml) was immediately added and the mixtures were mixed to stop enzymatic hydrolysis. Zero time samples were prepared by adding 2 ml. of acetonitrile to denature the proteins prior to addition of the test compounds. After centrifugation to sediment denatured proteins, 2 ml. of the supernatant was removed and analyzed by high pressure liquid chromatography, using a mobile phase of 60% acetonitrile/40% 0.05 m sodium phosphate buffer (pH 6.6), a U.V. detector and Waters® μ Bondapak Phenyl column. The half life of each test compound was determined graphically by plotting the decrease in concentration as a function of time.

[7] = Disappearance in vitro in dog whole blood; assay type: in vitro ADME; settings: 50 μg test compound, 37° C., read-out: T1/2 Dog Whole Blood
Method: as §3

T1 sequence (H0W3H1 1-470): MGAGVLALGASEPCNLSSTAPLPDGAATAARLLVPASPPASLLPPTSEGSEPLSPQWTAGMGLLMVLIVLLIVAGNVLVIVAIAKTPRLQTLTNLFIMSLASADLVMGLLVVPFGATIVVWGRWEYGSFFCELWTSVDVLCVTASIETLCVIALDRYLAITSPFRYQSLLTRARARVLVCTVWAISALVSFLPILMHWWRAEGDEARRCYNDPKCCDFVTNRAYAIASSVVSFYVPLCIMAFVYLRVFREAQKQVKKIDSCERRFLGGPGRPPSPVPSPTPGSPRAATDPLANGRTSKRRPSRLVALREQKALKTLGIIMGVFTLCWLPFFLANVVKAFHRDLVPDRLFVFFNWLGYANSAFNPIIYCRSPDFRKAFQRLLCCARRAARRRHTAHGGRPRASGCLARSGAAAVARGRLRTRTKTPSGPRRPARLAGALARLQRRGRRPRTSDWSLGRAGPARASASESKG
T2 sequence (Q8K4Z4 whole entry): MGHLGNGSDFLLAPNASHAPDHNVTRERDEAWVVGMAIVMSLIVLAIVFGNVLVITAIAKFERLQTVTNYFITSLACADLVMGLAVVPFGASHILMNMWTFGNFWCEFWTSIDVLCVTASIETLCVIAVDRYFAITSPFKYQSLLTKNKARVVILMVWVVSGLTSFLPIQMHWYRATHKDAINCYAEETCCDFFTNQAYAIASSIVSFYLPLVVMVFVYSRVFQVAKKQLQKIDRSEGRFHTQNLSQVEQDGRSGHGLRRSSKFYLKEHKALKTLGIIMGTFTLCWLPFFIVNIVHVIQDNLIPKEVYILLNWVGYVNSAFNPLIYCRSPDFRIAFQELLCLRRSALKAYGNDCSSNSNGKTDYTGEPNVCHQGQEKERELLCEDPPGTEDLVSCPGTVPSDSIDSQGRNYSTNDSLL

COc1ccc(CCNCC(O)C(=O)Oc2ccccc2)cc1OC (centres unmarked) [Example I, N-(3,4-Dimethoxyphenethyl)-N-[(2-hydroxy-2-phenoxycarbonyl)ethyl-]amine Hydrochloride]
Kb [1]: 1260 nM
Cardioselectivity KB (Trachea)/KB (Atria) [2]: 1
Kb [3]: 1260 nM
Recovery Times 50% [4]: 6 ± 1 min
Recovery Times 80% [4]: 11 ± 1 min
Recovery Times 100% [4]: 16 ± 2 min
ED50 [4]: 3.5 ± 0.5 mg/kg

COc1ccc(CCNCC(O)COC(=O)c2cccc(C)c2)cc1OC (centres unmarked) [Example IX]
Recovery Times 50% [4]: 6 ± 1 min
Recovery Times 80% [4]: 10 ± 1 min
Recovery Times 100% [4]: 16 ± 2 min
ED50 [4]: 4.7 ± 1.7 mg/kg

CC(C)NCC(O)COC(=O)c1ccc(N)cc1 (centres unmarked) [Example LIV, [2-Hydroxy-3-(isopropylamino)]propyl 4-aminobenzoate hydrochloride]
80% Recovery Time [5]: > 60 min
% I (Percent inhibition of heart rate response to isoproterenol) [5]: 80 ± 4%

CC(C)NCC(O)COC(=O)c1cccc(N)c1 (centres unmarked) [Example LV]
Kb [1]: 398 nM
Kb [3]: 158 nM

CC(=O)Nc1ccc(C(=O)OCC(O)CNC(C)C)cc1 (centres unmarked) [Example LXII, [2-Hydroxy-3-(isopropylamino)]propyl 4-(acetamido)benzoate hydrochloride]
Kb [1]: 1580 nM
Cardioselectivity KB (Trachea)/KB (Atria) [2]: 4
Kb [3]: 6310 nM

CC(C)NCC(O)COC(=O)c1ccc(CO)cc1 (centres unmarked) [Example LXIV, [2-Hydroxy-3(isopropylamino)]propyl 4-(hydroxymethyl)benzoate hydrochloride]
Kb [3]: 501 nM

COc1ccccc1COC(=O)C(O)CNCCc1ccc(OC)c(OC)c1 (centres unmarked) [Example V, 2-Methoxybenzyl 3-[[N-(3,4-Dimethoxyphenethyl)]amino]-2-hydroxypropionate]
pA2 Atria [1]: inactive
Kb [3]: 10000 nM
Potency ([4]; cumulative dose over 40-minute infusion, normalized to 50% inhibition of isoproterenol response, dog i.v.): low

Cc1cccc(C(=O)OCC(O)CNC(C)C)c1 (centres unmarked) [Example VIII]
Kb [1]: 158 nM
Kb [3]: 50.1 nM
Recovery Times 50% [4]: 7 ± 1 min
Recovery Times 80% [4]: 14 ± 3 min
Recovery Times 100% [4]: 20 ± 4 min
ED50 [4]: 1.83 ± 0.11 mg/kg

COc1ccc(CCNCC(O)COC(=O)c2ccccc2)cc1OC (centres unmarked) [Example VII]
Kb [1]: 100 nM
Cardioselectivity KB (Trachea)/KB (Atria) [2]: 5
Kb [3]: 501 nM
80% Recovery Time [5]: 29 ± 5 min
% I (Percent inhibition of heart rate response to isoproterenol) [5]: 45 ± 2%

COc1ccc(CCNCC(O)COC(=O)c2ccc(C)cc2)cc1OC (centres unmarked) [Example XI]
Kb [1]: 251 nM
Cardioselectivity KB (Trachea)/KB (Atria) [2]: 4
Kb [3]: 1000 nM
Recovery Times 50% [4]: 8 ± 1 min
Recovery Times 80% [4]: 16 ± 2 min
Recovery Times 100% [4]: 25 ± 3 min
ED50 [4]: 17.2 ± 5.8 mg/kg

CC(C)NCC(O)COC(=O)c1cccc([N+](=O)[O-])c1 (centres unmarked) [Example XXI]
Kb [1]: 158 nM
Kb [3]: 63.1 nM

CC(C)NCC(O)COC(=O)c1ccc(F)cc1 (centres unmarked) [Example XX]
Kb [1]: 251 nM
Kb [3]: 50.1 nM
half-life [6]: 3.5 ± 0.9 min
half-life [7]: 4 min

COc1ccc(CCNCC(O)C(=O)Oc2ccccc2C)cc1OC (centres unmarked) [II]
Kb [1]: 1260 nM

CCC(C)(C)NCC(O)COC(=O)c1ccccc1F (centres unmarked) [LIII]
Kb [1]: 158 nM

CC(C)NCC(O)COC(=O)c1ccc(O)cc1 (centres unmarked) [LVI]
Kb [1]: 158 nM
Kb [3]: 63.1 nM
% I (Percent inhibition of heart rate response to isoproterenol) [5]: 79 ± 9%

CCCNCC(O)COC(=O)c1ccc(N)cc1 (centres unmarked) [LXV, [2-Hydroxy-3-(n-propyl)amino]propyl 4-aminobenzoate oxalate]
Kb [1]: 1260 nM

COc1ccc(CCNCC(O)COC(=O)c2ccc(CO)cc2)cc1OC (centres unmarked) [LXVI, [2-Hydroxy-3-[(N3,4-dimethoxyphenethyl)amino]propyl 4-(hydroxymethyl) benzoate oxalate]
Kb [1]: > 3160 nM

CC(C)NCC(O)COc1cccc2ccccc12 (centres unmarked) [Propranolol, reference compound]
Recovery Times 50% [4]: 23 ± 4 min
Recovery Times 80% [4]: 42 ± 8 min
Recovery Times 100% [4]: 58 ± 9 min
80% Recovery Time [5]: > 60 min

COc1ccc(CCNCC(O)COC(=O)c2ccccc2Cl)cc1OC (centres unmarked) [XIII]
Kb [1]: 15.8 nM
Cardioselectivity KB (Trachea)/KB (Atria) [2]: 2
Kb [3]: 31.6 nM
Recovery Times 50% [4]: 7 min
Recovery Times 80% [4]: 12 ± 1 min
Recovery Times 100% [4]: 24 min
ED50 [4]: 2 ± 0.6 mg/kg

CC(C)NCC(O)COC(=O)c1cccc(F)c1 (centres unmarked) [XIX]
Kb [3]: 100 nM
half-life [6]: 8 ± 4 min
half-life [7]: 50 min

Cc1cccc(C(=O)OCC(O)CNC(C)(C)C)c1 (centres unmarked) [XLII]
half-life [6]: 5.5 ± 2.6 min
half-life [7]: 150 min

Cc1ccccc1C(=O)OCC(O)CNC(C)(C)C (centres unmarked) [XLI]
half-life [6]: > 180 min
half-life [7]: > 180 min

CC(C)(C)NCC(O)COC(=O)c1ccc(F)cc1 (centres unmarked) [XL]
half-life [6]: 11 ± 5 min
half-life [7]: 13 min

CC(C)NCC(O)COC(=O)c1ccccc1F (centres unmarked) [XVIII]
Kb [3]: 79.4 nM
Recovery Times 80% [4]: 8 ± 1 min
ED50 [4]: 1.5 mg/kg
80% Recovery Time [5]: 25 ± 9 min
% I (Percent inhibition of heart rate response to isoproterenol) [5]: 46 ± 5%
half-life [6]: 1.7 ± 0.6 min
half-life [7]: 7 min

CC(C)NCC(O)COC(=O)c1ccc2ccccc2c1 (centres unmarked) [XVI]
Kb [1]: 398 nM
Kb [3]: 251 nM

CC(C)NCC(O)COC(=O)c1cccc2ccccc12 (centres unmarked) [XV]
Kb [1]: 251 nM
Kb [3]: 100 nM
Recovery Times 50% [4]: 18 min
Recovery Times 80% [4]: 22 min
Recovery Times 100% [4]: 38 min
ED50 [4]: 1.5 mg/kg
80% Recovery Time [5]: > 60 min
% I (Percent inhibition of heart rate response to isoproterenol) [5]: 54%

CCCOc1ccccc1C(=O)OCC(O)CNC(C)C (centres unmarked) [XXVII]
Kb [1]: 251 nM
80% Recovery Time [5]: > 60 min
% I (Percent inhibition of heart rate response to isoproterenol) [5]: 69%

COc1ccc(CCNCC(O)COC(=O)c2ccccc2F)cc1OC (centres unmarked) [XXXIII]
Kb [1]: 794 nM
Cardioselectivity KB (Trachea)/KB (Atria) [2]: 2.5
Kb [3]: 2000 nM

COc1ccc(CCNCC(O)COC(=O)c2cccc(F)c2)cc1OC (centres unmarked) [XXXIV]
Kb [1]: 398 nM
Cardioselectivity KB (Trachea)/KB (Atria) [2]: 2
Kb [3]: 631 nM

COc1ccc(CCNCC(O)COC(=O)c2ccccc2C)cc1OC (centres unmarked) [XXXI]
80% Recovery Time [5]: > 60 min
% I (Percent inhibition of heart rate response to isoproterenol) [5]: 85%

CC(C)(C)NCC(O)COC(=O)c1ccccc1 (centres unmarked) [XXXVII]
Kb [1]: 158 nM
Kb [3]: 20 nM
80% Recovery Time [5]: > 60 min
% I (Percent inhibition of heart rate response to isoproterenol) [5]: 64 ± 5%
half-life [6]: 5.3 ± 1 min
half-life [7]: 5.5 min

COc1ccc(CCNCC(O)COC(=O)c2ccc(F)cc2)cc1OC (centres unmarked) [XXXV]
Kb [1]: 100 nM
Cardioselectivity KB (Trachea)/KB (Atria) [2]: 2
Kb [3]: 200 nM
80% Recovery Time [5]: > 60 min
% I (Percent inhibition of heart rate response to isoproterenol) [5]: 59%

CC(C)NCC(O)COC(=O)c1ccc(OCc2ccccc2)cc1 (centres unmarked) [XXX]
Kb [1]: > 1000 nM
